Assay results taken from patent publication US5212286A, “Atrial Natriuretic/vasodilator peptide compounds” (Scios Nova Inc., priority 1986, dated 1993).
Positions of bridges follow the written chain, without caps; N, C: chain ends. Residues, ends and D or L forms follow the SMILES beside them. No end group written: not given here.

Assays:
[1] = tested on: ANVP receptor sites on cultured bovine vascular smooth muscle cells; assay: Displacement of specific [125I]rANVP(126-150) binding on cultured smooth muscle cells; settings: for Ki: concentration of half-maximal displacement
Excerpt: Specific and saturable binding is a necessary component of a hormone/receptor interaction.
Various concentrations of the peptides described were examined for […]

[2] = tested on: rabbit thoracic aortic rings; assay: Relaxation of histamine-contracted rabbit thoracic aortic rings; settings: tested as described for the expressed material
Experimental: (§1) Synthetic ANVP compounds were compared to partially purified (gel filtration step) and purified (HPLC) native ANVP compounds (See FIGS. 3A-D) for their ability to relax histamine-contracted aortic rings. Rings were suspended in 10 ml aerated Kreb's buffer under 1.5 gm passive tension. Rings were precontracted with 5 X 10^-6 M histamine, washed and allowed to return to baseline tension, as described (Kleinert, H. D., supra). Increasing amounts of purified or synthetic ANVP compounds were then added in cumulative fashion.
The dried methanol soluble and ammonium acetate eluted material was resolubilized in 0.5 ml of distilled H2 O and tested for biological activity using the precontracted rabbit thoracic aortic ring model described in Kleinert, et al., Hypertension 6:Suppl. 1:143-146 (1984). Equal volumes of material reconstituted from crude lyophilized media, methanol soluble protein or protein eluted from SP-Sephadex® with 1.0 M ammonium acetate were compared using aortic rings precontracted with 5 μM histamine. Material synthesized by yeast cultures whose plasmids encoded proANVP (amino acids 26-152) (YEp-α-NF-9) and proANVP (amino acids 121-152) (YEp-α-NF-5), as well as the corresponding inverse orientations (YEp-α-NF-12 and YEp-α-NF-7, respectively), were compared.
A fraction of the crude bacteria extract was subsequently boiled for 5 minutes and lowered to pH 2.5 for 1 hour. […]

intact rats = assay: Natriuretic and diuretic effects in intact rats (bolus injection); format: in vivo, rat
Experimental: Synthetic ANVP compounds […] hANVP(127-151) were also found to be natriuretic in the intact rat. These compounds were administered as a bolus injection to Inactin anesthetized rats (100 mg/kg, average weight 399 g) which were maintained on a constant infusion of normal saline at 2.2 ml/hr. […] Data are expressed as mean±SE.

[3] = tested on: precontracted rabbit or rat aortic preparations; assay: Vasorelaxant potency on precontracted aortic rings; settings: for vasorelaxant potency in words: precontracted vascular preparations; for IC50: thoracic aortic segments precontracted with histamine or norepinephrine, read-out: IC50 (concentration producing half-maximal relaxation of the precontracted tissue)
Experimental: as §1, with “([…].,” for “(Kleinert, H. D.,”, “fashion. […] The relaxation effects of various ANVP compounds on precontracted rabbit or rat aortic preparations are shown in Table III. | Thoracic aortic segments were precontracted with histamine or | norepinephrine as previously described. Various doses of ANVP compounds | were then added and relaxation of the precontracted state was monitored. | Data are expressed as the concentration of each peptide required to | produce a halfmaximal relaxation of the precontracted tissue (IC50).” for “fashion.”

isolated rat kidney = assay: Renal function in the isolated perfused rat kidney
anesthetized dogs = assay: Hemodynamic, renal and metabolic effects in anesthetized dogs; format: in vivo, dog
Experimental: Renal and hemodynamic effects have also been measured in anesthetized dogs receiving a constant infusion of the compound rANVP(126-149) (1 μg/kg bolus, followed by 0.1 μg/kg/min for 1 hour). Effects were immediately detected on blood pressure, GFR and urine flow rate and electrolyte excretion and were sustained throughout the infusion. The "experimental" data presented for these parameters in […] are the average values obtained during the infusion. Mean arterial pressure (MAP) fell consistently by 10-15% while GFR rose by 25-35%, in association with a sustained diuresis and natriuresis (Table VIII). The parameters returned to control (i.e. pre-infusion) levels following termination of the infusion.

experimental animals = assay: Diuretic activity following infusion into experimental animals (FIG. 12B); format: in vivo; settings: urinary flow rate as percentage of baseline
Excerpt: FIG. 12 graphically portrays a comparison of the activities of selected compounds of the present invention, in which Panel A depicts a dose response relationship comparing the vasorelaxant properties of rANVP […] and [Ala^130 ]rANVP(126-150) and Panel B portrays a comparison of the diuretic activities of the same two peptides following infusion into experimental animals. Urinary flow rates during and post infusion (periods 7-24) were compared to control (baseline) flow rates (periods 1-6) and data are expressed as the percentage of baseline control values;
In table VII, various ANVP compounds were tested over a ten-fold range of concentration. Most of the peptides induced diuresis and natriuresis with few exceptions ([D-Asp^135 ]rANVP(126-150), [D-Val^137 ] rANVP(126-150)]). […] This is perhaps best observed with the ANVP analog [Ala^130 ]rANVP(126-150). […] Thus, it appears that [Ala^130 ]rANVP(126-150), rANVP(126-147) and related peptide forms represent classes of compounds which may exert renal selectivity. Such compounds could have important therapeutic value.

[4] = dose 0.1 μg, experimental period E, mean of 3-8 experiments
[5] = experimental: average during infusion
[6] = recovery, after termination of the infusion
[7] = experimental peak value, 0.1 to 1.0 μg added to perfusate, mean ± SE of 4 kidneys

## CC[C@H](C)[C@@H]1NC(=O)[C@H](CCCNC(=N)N)NC(=O)[C@H](CC(=O)O)NC(=O)[C@H](CCSC)NC(=O)[C@H](CCCNC(=N)N)NC(=O)CNC(=O)CNC(=O)[C@H](Cc2ccccc2)NC(=O)[C@@H](NC(=O)[C@H](CO)NC(=O)[C@@H](N)CO)CSSC[C@@H](C(=O)N[C@@H](CC(N)=O)C(=O)N[C@@H](CO)C(=O)N[C@@H](Cc2ccccc2)C(=O)N[C@@H](CCCNC(=N)N)C(=O)N[C@@H](Cc2ccc(O)cc2)C(=O)O)NC(=O)CNC(=O)[C@H](CC(C)C)NC(=O)CNC(=O)[C@H](CO)NC(=O)[C@H](CCC(N)=O)NC(=O)[C@H](C)NC(=O)CNC1=O [hANVP(128-151)] (H-SSCFGGRMDRIGAQSGLGCNSFRY-OH; disulfide 3-19)
[1]; Series A smooth muscle cells
  Ki: 7 nM
[2]
  biological (vasodilatory) activity of expression products, in words: displayed the full range of biological activities

## CC[C@H](C)[C@@H]1NC(=O)[C@H](CCCNC(=N)N)NC(=O)[C@H](CC(=O)O)NC(=O)[C@H]([C@@H](C)CC)NC(=O)[C@H](CCCNC(=N)N)NC(=O)CNC(=O)CNC(=O)[C@H](Cc2ccccc2)NC(=O)[C@@H](NC(=O)[C@H](CO)NC(=O)[C@H](CO)NC(=O)[C@@H](N)CCCNC(=N)N)CSSC[C@@H](C(=O)N[C@@H](CC(N)=O)C(=O)N[C@@H](CO)C(=O)N[C@@H](Cc2ccccc2)C(=O)N[C@@H](CCCNC(=N)N)C(=O)N[C@@H](Cc2ccc(O)cc2)C(=O)O)NC(=O)CNC(=O)[C@H](CC(C)C)NC(=O)[C@@H](C)NC(=O)[C@H](CO)NC(=O)[C@H](CCC(N)=O)NC(=O)[C@H](C)NC(=O)CNC1=O [[D-Ala^142]rANVP(126-150), H-Arg-Ser-Ser-Cys-Phe-Gly-Gly-Arg-Ile-Asp-Arg-Ile-Gly-Ala-gln-Ser-[D-Ala]-Leu-Gly-Cys-Asn-Ser-Phe-Arg-Tyr-OH]
Intact rats; dose 3670 pmol/kg
  Peak Na+ Excr.: 9.1 ± 0.9 µmol/min
  Peak Urine Vol.: 66.3 ± 3 µL/min
[3]
  vasorelaxant potency in words: most potent
  IC50: 0.62 nM
Isolated rat kidney; [4]
  .V (urine flow rate): 58.5 µL/min
  GFR: 0.75 mL/min
  UNa.V (urinary sodium excretion rate): 2.50 μEq/min
[1]; Series A smooth muscle cells
  Ki: 0.6 nM

## CC[C@H](C)[C@@H]1NC(=O)[C@H](CCCNC(=N)N)NC(=O)[C@H](CC(=O)O)NC(=O)[C@H]([C@@H](C)CC)NC(=O)[C@H](CCCNC(=N)N)NC(=O)CNC(=O)CNC(=O)[C@H](Cc2ccccc2)NC(=O)[C@@H](NC(=O)[C@H](CO)NC(=O)[C@H](CO)NC(=O)[C@@H](N)CCCNC(=N)N)CSSC[C@@H](C(=O)N[C@@H](CC(N)=O)C(=O)N[C@@H](CO)C(=O)N[C@@H](Cc2ccccc2)C(=O)N[C@@H](CCCNC(=N)N)C(=O)O)NC(=O)CNC(=O)[C@H](CC(C)C)NC(=O)CNC(=O)[C@H](CO)NC(=O)[C@H](CCC(N)=O)NC(=O)[C@H](C)NC(=O)CNC1=O [rANVP(126-149)] (H-RSSCFGGRIDRIGAQSGLGCNSFR-OH; disulfide 4-20)
Anesthetized dogs; during infusion
  fall of mean arterial pressure (MAP): 10-15%
  rise of GFR: 25-35%
Anesthetized dogs; [5]
  .V (urine flow rate): 1.06 ± 0.14 mL/min
  FEH2O (fractional water excretion): 3.4 ± 0.3%
  FEK: 34 ± 6%
  FENa: 4.1 ± 0.5%
  GFR: 32.3 ± 4.1 mL/min
  PA (plasma aldosterone): 5.4 ± 0.9 ng/100 ml
  PRA (plasma renin activity): 8.3 ± 1.8 ng/mL/h
  UK .V: 36 ± 6 μEq/min
  UNa .V: 187 ± 35 μEq/min
Anesthetized dogs; experimental: average during infusion, 1 μg/kg bolus then 0.1 μg/kg/min for 1 hour
  MAP (mean arterial pressure): 122 ± 4 mm Hg
Anesthetized dogs; [6]
  .V (urine flow rate): 0.37 ± 0.05 mL/min
  FEH2O (fractional water excretion): 1.5 ± 0.2%
  FEK: 21 ± 4%
  FENa: 1.9 ± 0.4%
  GFR: 25.4 ± 3.3 mL/min
  MAP (mean arterial pressure): 136 ± 4 mm Hg
  PA (plasma aldosterone): 7.0 ± 1.3 ng/100 ml
  PRA (plasma renin activity): 14 ± 2.5 ng/mL/h
  UK .V: 21 ± 4 μEq/min
  UNa .V: 68 ± 14 μEq/min
Intact rats; bolus injection, Inactin anesthetized rats
  natriuretic in the intact rat, in words: natriuretic
Isolated rat kidney; [7]
  .V (urine flow rate): 97.6 ± 19.4 µL/min
  FEK (fractional potassium excretion): 52.1 ± 6.2%
  FENa (fractional sodium excretion): 6.6 ± 2.0%
  FF (filtration fraction): 0.021 ± 0.001
  FLNa (filtered load of sodium): 90.1 ± 5.2 μEq/min
  GFR (glomerular filtration rate): 0.63 ± 0.03 mL/min
  RVR (renal vascular resistance): 3.9 ± 0.3 mmHg/ml/min
  TNa (tubular reabsorption of sodium): 84.2 ± 4.8 μEq/min
  UK .V (urinary potassium excretion rate): 1.46 ± 0.16 μEq/min
  UNa.V (urinary sodium excretion rate): 6.01 ± 1.99 μEq/min
[1]; Series B smooth muscle cells
  Ki: 0.89 nM

## CC[C@H](C)[C@@H]1NC(=O)[C@H](CCCNC(=N)N)NC(=O)[C@H](CC(=O)O)NC(=O)[C@H]([C@@H](C)CC)NC(=O)[C@H](CCCNC(=N)N)NC(=O)CNC(=O)CNC(=O)[C@H](C)NC(=O)[C@@H](NC(=O)[C@H](CO)NC(=O)[C@H](CO)NC(=O)[C@@H](N)CCCNC(=N)N)CSSC[C@@H](C(=O)N[C@@H](CC(N)=O)C(=O)N[C@@H](CO)C(=O)N[C@@H](Cc2ccccc2)C(=O)N[C@@H](CCCNC(=N)N)C(=O)N[C@@H](Cc2ccc(O)cc2)C(=O)O)NC(=O)CNC(=O)[C@H](CC(C)C)NC(=O)CNC(=O)[C@H](CO)NC(=O)[C@H](CCC(N)=O)NC(=O)[C@H](C)NC(=O)CNC1=O [[Ala^130]rANVP(126-150)]
[3]
  vasorelaxant potency in words: substantially less potent than rANVP(126-150)
  IC50: > 100 nM
[3]; listed as [Ala^130 ] rANVP
  vasorelaxant potency in words: essentially inactive
Experimental animals
  diuretic effects in vivo compared with rANVP(126-150) (FIG. 12b): nearly equipotent
[1]
  binding activity in smooth muscle cells relative to rANVP(126-150), in words: comparable binding activity to rANVP(126-150)
[1]; Series B smooth muscle cells
  Ki: 11.1 nM

## hANVP(126-151): human product produced in CHO cells, as printed; probably prohANVP(26-151) (RRSSCFGGRMDRIGAQSGLGCNSFRY; ends and bridges not checked; cysteine pairing not given here; UniProt P01160 126-151, looked up, fragment)
[2]
  biological (vasodilatory) activity of expression products, in words: exhibited biological activity similar to that observed above
